Experiments:
[1] = test system: Aedes aegypti mosquito; experiment: USDA Petri Dish Method, 3 min exposure to treated glazed tile; format: in vivo; conditions: Aedes aegypti, glazed tile, 3 min exposure
Procedure, shortened: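 USDA Petri Dish screen: groups of twenty female Aedes aegypti (4-6 days old) held 3 minutes on dried acetone-based treatments (with/without adjuvant), then transferred to untreated card. Replicated three or more times; knockdown followed over time, mortality recorded 24 hours post-exposure with sucrose-soaked cotton available.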

[2] = test system: Argentine ant, Linepithema humile; experiment: Knockdown/mortality of ant workers under continuous exposure on treated glazed tile
Procedure, shortened: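 0.5% AI imidacloprid in acetone, alone or with 0.1, 1.0 or 5.0% additive (benzenepropanoic acid, oleic acid, methyl oleate, methyl linoleate, methyl palmitate or BHA), 1 ml dried overnight on glazed tile (~161 cm^2). Ten workers confined under continuous exposure, water from 3 h; knockdown/mortality scored at intervals and 24 h; ≥3 replicates.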

[3] = format: physicochemical; conditions: classified from Log P
Excerpt: As used herein, a “partition coefficient” is defined as the ratio of concentrations of an un-ionized compound between solutions of water and octanol. To measure the partition coefficient of ionizable solutes, the pH of the aqueous phase is adjusted such that the predominant form of the compound is un-ionized. The logarithm of the ratio of the concentrations of the un-ionized solute in the solvents is referred to herein as log P or log K ow.
As noted herein, the octanol-water partition coefficient may be used to identify the cuticular penetration of a particular active ingredient. One factor in the relative speed through which any insecticide acts is the insecticide's ability to cross the insect cuticle. A determining factor for cuticle penetration is Log K ow, also known as Log P. Log K ow (Log P) is the octanol-water partition coefficient for a neutral molecule. Log P is used hereinfurther, but, as noted above, the term is synonymous with Log K ow. As previously noted, the cuticular penetration of any particular active ingredient as against a plant cuticle is not indicative of that same active ingredient's ability to penetrate an insect cuticle.
The cuticular penetration of a compound is classified as “INTERMEDIATE” when the Log P value is between about 2.0 and about 4.0.

[4] = octanol-water partition coefficient (Log K ow), Table 1; cited from earlier work
[5] = test system: Musca domestica, susceptible strain WHO(N); experiment: Topical insecticide application to houseflies; format: in vivo; conditions: 0.5 μl per fly, % a.i. conc. in acetone, Table 95
Experimental: Male Musca domestica, susceptible strain WHO(N), or other strains were used.
The flies were anaesthetized with CO2, and ten individuals were positioned (on their back) on a filter paper which was on the top of a carbon dioxide emitting device. […]
Afterwards the insects were transferred into a beaker closed by a gauze lid with a water saturated cotton pad on the top.
At regular intervals, mortality was recorded (cumulatively).

[6] = test system: Musca domestica, susceptible strain WHO(N); experiment: Contact efficacy against houseflies on filter papers in glass dishes; format: in vivo; conditions: % a.i. conc. in acetone on filter papers, Table 97
Experimental: Male Musca domestica, susceptible strain WHO(N), were used.
A solution of the active ingredient in acetone was prepared. A concentration row was made. After evaporation of the acetone (30′), the dishes were closed by a glass lid and transferred into the test room. One day later twenty flies, anaesthetized with CO2, are counted into each dish. At regular intervals, knock down was recorded (cumulatively). Each test consisted of one replicate. […]

[7] = test system: Red Imported Fire ant (RIFA), Solenopsis invicta; experiment: Knockdown/mortality of ant workers under continuous exposure on treated glazed tile; format: in vivo; conditions: fipronil 0.01% AI with or without adjuvant
Excerpt: (§1) Treatments were allowed to dry overnight. […] Treatments were replicated minimum three times.
(§2) Treatments were allowed to dry overnight. […] Treatments were replicated a minimum of three times.

[8] = test system: Odorous House ant, Tapinoma sessile; experiment: as above; format: in vivo; conditions: fipronil 0.001% (FIG. 45); ethiprole 0.01% (FIG. 53); with or without adjuvant
Excerpt: Actual coverage was about 5″×5″ (or 161 cm2) for easy handling. Treatments were allowed to dry overnight. […] Treatments were replicated minimum three times.
as §1, §2
Treatments were allowed to dry overnight. […] Treatments were replicated minimum of three times. […] The results are shown in FIG. 84 (No adjuvant alone treatment was performed).

[9] = test system: susceptible/normal German cockroach (Monheim strain), Blattella germanica; experiment: Knockdown/mortality of male cockroaches under continuous exposure on treated glazed tile; format: in vivo; conditions: fipronil 0.001% (FIG. 48); ethiprole 0.01% (FIG. 55); with or without adjuvant
Experimental: Treatments were allowed to dry overnight. […] Treatments were replicated a minimum of three times. […]
Treatments were allowed to dry overnight. […] Treatments were replicated a minimum of three times. Cockroach knockdown/mortality was evaluated at 5 minute intervals for the first 60 minutes after exposure and then at 2, 18 and 24 hours.

[10] = test system: Culex quinquefasciatus mosquito; experiment: USDA Petri Dish Method, 3 min exposure to treated glazed tile (twenty 4-6 day old females); format: in vivo; conditions: fipronil 0.01% AI with or without adjuvant
Experimental: MATERIALS AND METHODS: Solutions of resmethrin at 1 and 0.5% AI were prepared with and without adjuvant in acetone. […] USDA Petri Dish Method was used as initial screening protocol. Twenty, 4-6 day old female Culex quinquefasciatus mosquitoes were exposed to each treatment for 3 minutes and then moved to a clean untreated white paper index card. Treatments were replicated a minimum of three times. Mosquito knockdown was evaluated at 3 minute intervals for the first 15 minutes and then at 5 minute intervals for the remainder of an hour. A small cotton ball soaked in sucrose solution was added on the screen top of the petri-dish as a drinking source after the 2 hour evaluation. Mortality was evaluated at 24 hours after exposure.
(§3) Treatments were allowed to dry overnight. USDA Petri Dish Method was used as initial screening protocol. Twenty, 4-6 day old female Culex mosquitoes were exposed to each treatment for 3 minutes and then moved to a clean untreated white paper index card. Treatments were replicated a minimum of three times. Mosquito knockdown was evaluated at various intervals through 3 hours after exposure. A small cotton ball soaked in sucrose solution was added on the screen top of the petri-dish as a drinking source. Mortality was evaluated at 24 hours after exposure.
as §3, with “female Culex quinquefasciatus mosquitoes were” for “female Culex mosquitoes were”, “intervals through 2 hours after” for “intervals through 3 hours after”, “solution was then added on” for “solution was added on”
as §3, with “Culex quinquefasciatus” for “Culex”, “hourly intervals.” for “intervals through 3 hours after exposure.”, “source after 2 hours.” for “source.”

CC1(C)C(C=C(Cl)Cl)C1C(=O)OC(C#N)c1ccc(F)c(Oc2ccccc2)c1 (stereo not drawn) [β-cyfluthrin, reference compound]
toxicity / efficacy of the substance alone (summary in words) [1]: 100% knockdown, or nearly 100% knockdown even in the absence of the adjuvant
toxicity / efficacy of the substance alone (summary in words) ([2]; Argentine ant, treated glazed tile): extremely effective at killing the ants
Likelihood of Direct Insect Cuticular Penetration [3]: Fast (classified as “FAST” when it has a Log P value of about >4.0)
Log P [4]: 5.9

Cc1ccc(O)c(-n2nc3ccccc3n2)c1 [0.5% Compound B]
% Mortality after ([5]; 15′): 0%
% Mortality after ([5]; 30′): 0%
% Mortality after ([5]; 1 h): 0%
% Mortality after ([5]; 2 h): 0%
% Mortality after ([5]; 4 h): 0%
% Mortality after ([5]; 1 d): 60%
% knock down after ([6]; 15′): 0%
% knock down after ([6]; 30′): 0%
% knock down after ([6]; 1 h): 0%
% knock down after ([6]; 1.5 h): 0%
% knock down after ([6]; 2 h): 0%
% knock down after ([6]; 3 h): 0%
% knock down after ([6]; 4 h): 0%
% knock down after ([6]; 6 h): 0%
% knock down after ([6]; 1 d): 70%

CC1(C)[C@H](C(=O)O[C@H](C#N)c2cccc(Oc3ccccc3)c2)[C@@H]1C=C(Br)Br [0.0000256% DTM]
% Mortality after ([5]; 15′): 10%
% Mortality after ([5]; 30′): 20%
% Mortality after ([5]; 1 h): 30%
% Mortality after ([5]; 2 h): 20%
% Mortality after ([5]; 4 h): 20%
% Mortality after ([5]; 1 d): 60%

N#Cc1ccc(CC(=NNC(=O)Nc2ccc(OC(F)(F)F)cc2)c2cccc(C(F)(F)F)c2)cc1 (mixture of isomers) [metaflumizone]
Likelihood of Direct Insect Cuticular Penetration [3]: Fast (classified as “FAST” when it has a Log P value of about >4.0)
Log P [4]: 5.1

O=C(NC(=O)c1c(F)cccc1F)Nc1cc(Cl)c(OC(F)(F)C(F)F)c(Cl)c1 [hexaflumuron]
Likelihood of Direct Insect Cuticular Penetration [3]: Fast (classified as “FAST” when it has a Log P value of about >4.0)
Log P [4]: 5.6

CC(C)=CC1C(C(=O)OCc2coc(Cc3ccccc3)c2)C1(C)C (centres unmarked) [resmethrin]
toxicity / efficacy of the substance alone (summary in words) [1]: did not provide mosquito knockdown
Likelihood of Direct Insect Cuticular Penetration [3]: Fast (classified as “FAST” when it has a Log P value of about >4.0)
Log P [4]: 5.4

CC1(C)[C@H](C(=O)O[C@H](C#N)c2cccc(Oc3ccccc3)c2)[C@@H]1C=C(Br)Br [0.00064% DTM]
% Mortality after ([5]; 15′): 100%
% Mortality after ([5]; 30′): 100%
% Mortality after ([5]; 1 h): 100%
% Mortality after ([5]; 2 h): 100%
% Mortality after ([5]; 4 h): 100%
% Mortality after ([5]; 1 d): 80%

CC1(C)CNC(=NN=C(/C=C/c2ccc(C(F)(F)F)cc2)/C=C/c2ccc(C(F)(F)F)cc2)NC1 [hydramethylnon]
Likelihood of Direct Insect Cuticular Penetration [3]: Intermediate (classified as “INTERMEDIATE” when the Log P value is between about 2.0 and about 4.0)
Log P [4]: 2.3

CCOC(=O)CC(SP(=S)(OC)OC)C(=O)OCC (centres unmarked) [malathion]
Likelihood of Direct Insect Cuticular Penetration [3]: Intermediate (classified as “INTERMEDIATE” when the Log P value is between about 2.0 and about 4.0)
Log P [4]: 2.7

CC1(C)C(C=C(Br)Br)C1C(=O)OC(C#N)c1cccc(Oc2ccccc2)c1 (centres unmarked) [0.000128% DTM]
% Mortality after ([5]; 15′): 20%
% Mortality after ([5]; 30′): 50%
% Mortality after ([5]; 1 h): 70%
% Mortality after ([5]; 2 h): 70%
% Mortality after ([5]; 4 h): 80%
% Mortality after ([5]; 1 d): 50%

N#Cc1nn(-c2c(Cl)cc(C(F)(F)F)cc2Cl)c(N)c1[S+]([O-])C(F)(F)F (single isomer, unassigned) [fipronil, reference compound]
time to a relatively high percentage of mortality (around 80%) [7]: around 20 hours
time at which 100% mortality was observed [8]: 25 h
time at which 100% mortality was seen ([2]; fipronil 0.001% with or without adjuvant (FIG. 43)): around 25 hours
Likelihood of Direct Insect Cuticular Penetration [3]: Fast (classified as “FAST” when it has a Log P value of about >4.0)
mortality at 25 hours [9]: around 40%
mortality at 24 hours (FIG. 44) [10]: around 50%
Log P [4]: 4.0

O=C(NC(=O)c1ccccc1Cl)Nc1ccc(OC(F)(F)F)cc1 [triflumuron]
Likelihood of Direct Insect Cuticular Penetration [3]: Fast (classified as “FAST” when it has a Log P value of about >4.0)
Log P [4]: 4.9

CCC(C)(C)C(=O)OC1=C(c2ccc(Cl)cc2Cl)C(=O)OC12CCCCC2 [spirodiclofen]
Likelihood of Direct Insect Cuticular Penetration [3]: Fast (classified as “FAST” when it has a Log P value of about >4.0)
Log P [4]: 5.8

CNC(=O)Oc1cccc2ccccc12 [carbaryl]
Likelihood of Direct Insect Cuticular Penetration [3]: Intermediate (classified as “INTERMEDIATE” when the Log P value is between about 2.0 and about 4.0)
Log P [4]: 2.8

abamectin
Likelihood of Direct Insect Cuticular Penetration [3]: Fast (classified as “FAST” when it has a Log P value of about >4.0)
Log P [4]: 4.4

COC(C)(C)CCC[C@H](C)C/C=C/C(C)=C/C(=O)OC(C)C (racemic) [methoprene]
Likelihood of Direct Insect Cuticular Penetration [3]: Fast (classified as “FAST” when it has a Log P value of about >4.0)
Log P [4]: >6.0

— patent US9028856B2, “Synergistic pesticide compositions” (priority 2008, dated 2015)
